Test results as given in patent publication US5770688A, “Method and composition for the treatment of mammalian HIV infection” (GSF-Forschungszentrum fur Umwelt und Gesundheit GmbH, priority 1989, dated 1998).
“Also recorded” adds a separate entry of the source.

Tests used:
[1] = tolerability and clinical investigation of FIV infected cats; assay type: in vivo
Excerpt: In the following series of experiments, two naturally FIV infected cats (M and G) were used. These particular cats were kept for more than one year under constant observation in the Clinic for Internal Medicine at the Veterinary School in Munich, Germany before the onset of melittin (Seq. ID NO:1) treatment. In each cat, FIV infection had been confirmed by detecting an antibody ELISA. In this regard, a test marketed under the tradename PetChek® and which is available from the same company in Portland, Maine was employed. As best seen in FIG. 53. The antibody titer against FIV in both cats was approximately 1:50. As a general matter, the overall physical condition of both cats was good during the observation period. […]
During the experiment it was determined that detectable blood serum levels of melittin (Seq. ID NO:1) of about 5 ng/ml could be detected following an injection of melittin equal to […] a few minutes after injection. […] In vitro data has shown that melittin, after this time interval, is found within the cells where it can be detected in tact for more than 48 hours. […] The quantitative effect of melittin on FIV replication was determined quantitatively by utilizing FIV-PCR employing nested primers from the gag region. Quantification was based upon the determination of amplified product in identical samples which have been amplified after different cycle times. […]

cell free HIV = assay: influence of melittin on cell free HIV (P24 determination, infectivity); conditions: incubation of cell free HIV
phospholipase A2 = conditions: anterior pituitary; cited from earlier work

Question: With “Gly-Ile-Gly-Ala-Val-Leu-Lys-Val-Leu-Thr-Thr-Gly-Leu-Pro-Ala-Leu-Ile-Ser-Trp-Ile-Lys-Arg-Lys-Arg-Gln-Gln-Amide [melittin]” as the substance, how does the “tolerability / adverse reactions” value ([1]; 50 to 500 mg/kg s.c. twice weekly, eight weeks) read?
Answer: appeared to tolerate the numerous injections without any clinically noticeable negative reactions; also recorded: no adverse reaction or clinical abnormalities could be observed in either animal

Question: And the pneumonitis ([1]; cat M)?
Answer: improved during the melittin treatment

Question: And the “detection of the P24 antigen” value (cell free HIV)?
Answer: does not impair the detection of the P24 antigen

Question: What about the “virus infectivity of cell free HIV” value (cell free HIV) of the same substance?
Answer: cause the virus infectivity to be reduced

Question: What about the “effect on phospholipase A2” value (phospholipase A2) of the same substance?
Answer: stimulates endogenous phospholipase A2 in the anterior pituitary leading to growth hormone secretion
